Molecules are shown by their SMILES.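 Following 48 hours of exposure in 96-well plates, responses at five concentrations were used to interpolate endpoints linearly. At the GI50, growth is halved.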 Activity calls are given as the source filed them. No stated cut-off is given here; in the data, active = GI50 up to about 1.1 µM and inactive = higher. Some results are limits rather than exact numbers.

Test systems include A498; ACHN; EKVX; HT-29; M14; MCF7; MOLT-4; NCI-H226; NCI-H23; NCI/ADR-RES; OVCAR-3; OVCAR-8; RPMI-8226; SK-MEL-2; SR; UACC-62; 786-0; HCT-116; NCI-H522; Malme-3M.
What all share (experiment): inhibition of tumour cell growth, NCI panel, 48 h

As for `COc1ccc2c(c1)CC[C@@H]1[C@@H]2CC[C@]2(C)C(=O)/C(=C/c3ccc(O)c(OC)c3)C[C@@H]12`, the GI50 in the test with A498 was > 100 µM (inactive); with ACHN it was > 100 µM (inactive); in the test with EKVX, 45.8 µM (inactive); in the test on HT-29, 51.8 µM (inactive); with M14, 35.6 µM (inactive); in the test with MCF7, 60.4 µM (inactive). The GI50 in the test on MOLT-4 was 28.2 µM (inactive); in the test with NCI-H226, 44.2 µM (inactive); in the test with NCI-H23, 77.1 µM (inactive); in the test with NCI/ADR-RES it was 44.2 µM (inactive); with OVCAR-3, > 100 µM (inactive); in the test with OVCAR-8 it was 91.8 µM (inactive). Moreover, the GI50 in the test with RPMI-8226 was 34.7 µM (inactive); in the test with SK-MEL-2, 69.2 µM (inactive); in the test on SR, 32.2 µM (inactive); in the test on UACC-62, 68.5 µM (inactive).
Consider `CC1(C)OC2OC(C(=O)c3ccccc3)C3OC(C)(C)OC3C2O1` (stereo not given), for which the GI50 in the test with 786-0, with A498, in the test on ACHN, in the test on EKVX, in the test with HCT-116 and in the test with M14 was > 100 µM (inactive) each time. The GI50 in the test with MCF7, in the test with MOLT-4, in the test with NCI-H226, in the test with NCI-H23, in the test with NCI-H522 and with NCI/ADR-RES was > 100 µM (inactive) each time. Besides, the GI50 with OVCAR-3, in the test with OVCAR-8, in the test on RPMI-8226, with SK-MEL-2, in the test with SR and with UACC-62 was > 100 µM (inactive) in each case.
Regarding `COc1ccc(C[C@@H]2OC3(C=CC(=O)CC3Sc3ccccc3)O[C@H]2Cc2ccc(OC)cc2)cc1` (stereo not given in full), the GI50 in the test on 786-0 was 0.151 µM (active); in the test with A498, 4.08 µM (inactive); in the test with ACHN, 1.36 µM (inactive); in the test with HT-29, 1.79 µM (inactive); in the test with M14, 1.16 µM (inactive); in the test with MCF7 it was 0.388 µM (active). Also, the GI50 in the test with MOLT-4 was 0.282 µM (active); with Malme-3M, 1.85 µM (inactive); in the test with NCI-H226, 1.53 µM (inactive); with NCI-H23 it was 1.71 µM (inactive); in the test with NCI/ADR-RES, 1.48 µM (inactive); in the test with OVCAR-3, 1.64 µM (inactive). Further, the GI50 in the test on OVCAR-8 was 0.29 µM (active); in the test on RPMI-8226, 0.31 µM (active); with SK-MEL-2, 1.53 µM (inactive); in the test with SR, 0.187 µM (active); in the test on UACC-62 it was 2.15 µM (inactive).
Take `CS/C1=C(\c2ccc(C)cc2)N(c2ccccc2)C(=O)C(=O)N(c2ccccc2)/C(c2ccc(C)cc2)=C(/SC)SS1`: the GI50 was > 100 µM (inactive) with 786-0; 50.5 µM (inactive) in the test with A498; > 100 µM (inactive) in the test on ACHN; > 100 µM (inactive) with EKVX; > 100 µM (inactive) with HCT-116; > 100 µM (inactive) in the test on HT-29. For the same compound, the GI50 in the test on M14 is 82.8 µM (inactive); with MCF7, > 100 µM (inactive); with MOLT-4 it was > 100 µM (inactive); with Malme-3M it was > 100 µM (inactive); in the test on NCI-H23, > 100 µM (inactive); in the test on NCI-H522, > 100 µM (inactive). Besides, the GI50 in the test on NCI/ADR-RES, in the test with OVCAR-3, in the test with OVCAR-8, with RPMI-8226, in the test on SK-MEL-2 and in the test with SR was > 100 µM (inactive) in each case. Moreover, the GI50 in the test on UACC-62 is > 100 µM (inactive).
Consider `CCCC(C(=O)Nc1cccc2nc[nH]c12)C(=O)OCC` (stereo not given), for which the GI50 in the test with 786-0, in the test on A498, with ACHN, with EKVX, in the test on HCT-116 and with HT-29 was > 100 µM (inactive) each time. For the same compound, the GI50 is > 100 µM (inactive) with M14; > 100 µM (inactive) in the test on MCF7; > 100 µM (inactive) with MOLT-4; > 100 µM (inactive) in the test with NCI-H226; 44.1 µM (inactive) with NCI-H522; 79.1 µM (inactive) in the test on NCI/ADR-RES. Moreover, the GI50 is 67.8 µM (inactive) with OVCAR-3; > 100 µM (inactive) with OVCAR-8; > 100 µM (inactive) in the test on RPMI-8226; > 100 µM (inactive) in the test on SK-MEL-2; > 100 µM (inactive) in the test on SR; > 100 µM (inactive) in the test with UACC-62.
On to `COC(=O)CNCC1OC2OC(C)(C)OC2C1N=[N+]=[N-]` (stereo not given), for which the GI50 in the test on 786-0, with A498, in the test with ACHN, in the test on EKVX, in the test on HCT-116 and with HT-29 was > 100 µM (inactive) each time. The GI50 in the test on MCF7, in the test with MOLT-4, in the test on NCI-H226, with NCI/ADR-RES, in the test with OVCAR-3 and in the test with OVCAR-8 was > 100 µM (inactive) in each case. For the same compound, the GI50 with RPMI-8226, in the test on SK-MEL-2, with SR and in the test with UACC-62 was > 100 µM (inactive) throughout.
In the case of `c1ccc2c(c1)[nH]c1c2cc[n+]2cc3c(cc12)CCCC3`, the GI50 with 786-0 was 2.28 µM (inactive); in the test with A498 it was 5.38 µM (inactive); in the test with ACHN it was 3.75 µM (inactive); in the test on EKVX, 4.89 µM (inactive); in the test with HCT-116, 1.59 µM (inactive); with HT-29 it was 3.28 µM (inactive). Also, the GI50 in the test with M14 was 2.3 µM (inactive); in the test on MCF7 it was 2.13 µM (inactive); in the test with MOLT-4, 1.18 µM (inactive); in the test on NCI-H226, 2.03 µM (inactive); with NCI-H23, 2.24 µM (inactive); in the test on NCI-H522, 1.79 µM (inactive). Besides, the GI50 in the test on NCI/ADR-RES was 44.6 µM (inactive); in the test on OVCAR-3, 1.16 µM (inactive); in the test with OVCAR-8, 2.42 µM (inactive); in the test with RPMI-8226, 1.53 µM (inactive); in the test with SK-MEL-2, 1.63 µM (inactive); in the test with SR, 1.75 µM (inactive).
`O=C1c2cc3c(cc2CC12Cc1ccc4c(c1C2=O)CCC4)CCC3` (stereo not given): the GI50 was 65.6 µM (inactive) in the test on 786-0; > 100 µM (inactive) in the test with A498; > 100 µM (inactive) with ACHN; > 100 µM (inactive) with EKVX; > 100 µM (inactive) in the test on HCT-116; > 100 µM (inactive) in the test on HT-29. In addition, the GI50 with M14 is > 100 µM (inactive); with MCF7, > 100 µM (inactive); in the test on MOLT-4, > 100 µM (inactive); in the test on Malme-3M it was 41.7 µM (inactive); in the test on NCI-H23 it was > 100 µM (inactive); in the test on NCI-H522 it was > 100 µM (inactive). For the same compound, the GI50 in the test on NCI/ADR-RES was > 100 µM (inactive); in the test on OVCAR-3, 75.5 µM (inactive); with OVCAR-8, > 100 µM (inactive); with RPMI-8226, > 100 µM (inactive); in the test with SK-MEL-2, > 100 µM (inactive); in the test on SR it was > 100 µM (inactive).

These data come from ChEMBL document CHEMBL1201862, “PubChem BioAssay data set” (2004).
